Test results reported in PubChem BioAssay (NCI).
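Cultured in 96-well plates, cells were exposed to test compound for 48 hours across five concentrations. TGI: total growth inhibition.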

Key:
Assay in all cases: NCI tumour cell line growth inhibition, 48 h
[1] = test system: OVCAR-8 ovarian
[2] = test system: XF 498 CNS
[3] = test system: M19-MEL melanoma
[4] = test system: U251 CNS
[5] = test system: NCI-H23 lung
[6] = test system: EKVX NSCLC
[7] = test system: UACC-257 melanoma
[8] = test system: DMS 114 small cell lung
[9] = test system: MALME-3M melanoma
[10] = test system: COLO 205 colon
[11] = test system: SK-MEL-5 melanoma
[12] = test system: TK-10 renal
[13] = test system: ACHN renal
[14] = test system: RPMI-8226 leukemia
[15] = test system: SNB-78 CNS
[16] = test system: HOP-62 NSCLC
[17] = test system: SNB-19 CNS
[18] = test system: NCI-H460 lung
[19] = test system: MOLT-4 leukemia
[20] = test system: A549 NSCLC
[21] = test system: HT29 colon
[22] = test system: HOP-92 NSCLC
[23] = test system: RXF 393 renal
[24] = test system: SF-295 CNS
[25] = test system: OVCAR-5 ovarian
[26] = test system: SK-MEL-2 melanoma
[27] = test system: OVCAR-3 ovarian
[28] = test system: HCC-2998 colon
[29] = test system: DLD-1 colon
[30] = test system: NCI-H522 lung
[31] = test system: 786-0 renal
[32] = test system: LXFL 529 NSCLC
[33] = test system: IGROV1 ovarian
[34] = test system: UACC-62 melanoma
[35] = test system: DMS 273 small cell lung
[36] = test system: CCRF-CEM leukemia
[37] = test system: SW-620 colon
[38] = test system: KM20L2 colon
[39] = test system: OVCAR-4 ovarian
[40] = test system: LOX IMVI melanoma
[41] = test system: SF-539 CNS
[42] = test system: HCT-116 colon
[43] = test system: SF-268 CNS
[44] = test system: KM12 colon
[45] = test system: SN12C renal
[46] = test system: K-562 leukemia
[47] = test system: SK-MEL-28 melanoma
[48] = test system: UO-31 renal
[49] = test system: HCT-15 colon
[50] = test system: HL-60(TB) leukemia
[51] = test system: M14 melanoma
[52] = test system: A498 renal
[53] = test system: SNB-75 CNS
[54] = test system: MDA-MB-435
[55] = test system: CAKI-1 renal
[56] = test system: T-47D breast
[57] = test system: SK-OV-3 ovarian
[58] = test system: BT-549 breast
[59] = test system: DU-145 prostate
[60] = test system: PC-3 prostate
[61] = test system: NCI/ADR-RES ovarian
[62] = test system: NCI-H226 lung
[63] = test system: MDA-N
[64] = test system: SR leukemia
[65] = test system: HS 578T breast
[66] = test system: MCF7 breast
[67] = test system: MDA-MB-231 breast

COC(=O)C1=C(C(=O)OC)C2(C)Nc3ccccc3C2=C(c2ccccc2)C1 (stereo unspecified)
TGI [1]: 61.7 µM
TGI [2]: 27 µM
TGI [3]: 46 µM
TGI [4]: 41.6 µM
TGI [5]: 45.7 µM
TGI [6]: 70.5 µM
TGI [7]: 39.7 µM
TGI [8]: 44.4 µM
TGI [9]: 37.1 µM
TGI [10]: 34 µM
TGI [11]: 29.9 µM
TGI [12]: 69.9 µM
TGI [13]: 62.3 µM
TGI [14]: 29.6 µM
TGI [15]: 46.9 µM
TGI [16]: 50.1 µM
TGI [17]: 75.5 µM
TGI [18]: 42.9 µM
TGI [19]: 29.6 µM
TGI [20]: 46.7 µM
TGI [21]: 70.6 µM
TGI [22]: 38.9 µM
TGI [23]: 54.3 µM
TGI [24]: 58 µM
TGI [25]: 62.7 µM
TGI [26]: 39 µM
TGI [27]: 52.2 µM
TGI [28]: 64.2 µM
TGI [29]: > 100 µM
TGI [30]: 35.9 µM
TGI [31]: 81.4 µM
TGI [32]: 32.1 µM
TGI [33]: 52.9 µM
TGI [34]: 38.5 µM
TGI [35]: 43.7 µM
TGI [36]: 47.4 µM
TGI [37]: 69.6 µM
TGI [38]: 74.3 µM
TGI [39]: 50.1 µM
TGI [40]: 55.7 µM
TGI [41]: 37.5 µM
TGI [42]: 44 µM
TGI [43]: 66.5 µM
TGI [44]: 30.3 µM
TGI [45]: 57.7 µM
TGI [46]: 47.8 µM
TGI [47]: 40.7 µM
TGI [48]: 38.2 µM
TGI [49]: 51.8 µM
TGI [50]: 41.5 µM
TGI [51]: 31.8 µM

O=C1c2cc([N+](=O)[O-])ccc2-c2ccc3c4ccc5c6c(ccc(c7ccc1c2c73)c64)C(=O)c1cc([N+](=O)[O-])ccc1-5
TGI [1]: > 100 µM
TGI [52]: > 100 µM
TGI [4]: > 100 µM
TGI [5]: > 100 µM
TGI [6]: > 100 µM
TGI [7]: > 100 µM
TGI [9]: > 100 µM
TGI [53]: > 100 µM
TGI [10]: > 100 µM
TGI [11]: > 100 µM
TGI [12]: > 100 µM
TGI [54]: > 100 µM
TGI [13]: > 100 µM
TGI [14]: > 100 µM
TGI [55]: > 100 µM
TGI [16]: > 100 µM
TGI [17]: > 100 µM
TGI [56]: > 100 µM
TGI [19]: > 100 µM
TGI [20]: > 100 µM
TGI [21]: > 100 µM
TGI [57]: > 100 µM
TGI [58]: > 100 µM
TGI [59]: > 100 µM
TGI [22]: > 100 µM
TGI [23]: > 100 µM
TGI [24]: > 100 µM
TGI [25]: > 100 µM
TGI [26]: > 100 µM
TGI [27]: > 100 µM
TGI [60]: > 100 µM
TGI [30]: > 100 µM
TGI [31]: > 100 µM
TGI [61]: > 100 µM
TGI [33]: > 100 µM
TGI [34]: > 100 µM
TGI [62]: > 100 µM
TGI [36]: > 100 µM
TGI [63]: > 100 µM
TGI [64]: > 100 µM
TGI [37]: > 100 µM
TGI [39]: > 100 µM
TGI [40]: > 100 µM
TGI [65]: > 100 µM
TGI [66]: > 100 µM
TGI [42]: > 100 µM
TGI [43]: > 100 µM
TGI [67]: > 100 µM
TGI [44]: > 100 µM
TGI [45]: > 100 µM
TGI [46]: > 100 µM
TGI [47]: > 100 µM
TGI [48]: > 100 µM
TGI [49]: > 100 µM
TGI [50]: > 100 µM
TGI [51]: > 100 µM

CCOc1cc2oc(C)cc(=O)c2c(OC)c1C=Nc1ccc(Cn2c(C)nc3ccccc32)cc1
TGI [1]: > 100 µM
TGI [52]: > 100 µM
TGI [4]: > 100 µM
TGI [5]: > 100 µM
TGI [6]: > 100 µM
TGI [7]: > 100 µM
TGI [9]: > 100 µM
TGI [53]: > 100 µM
TGI [10]: > 100 µM
TGI [11]: > 100 µM
TGI [12]: > 100 µM
TGI [54]: > 100 µM
TGI [13]: > 100 µM
TGI [14]: > 100 µM
TGI [55]: > 100 µM
TGI [16]: > 100 µM
TGI [17]: > 100 µM
TGI [56]: > 100 µM
TGI [18]: > 100 µM
TGI [19]: > 100 µM
TGI [20]: > 100 µM
TGI [21]: > 100 µM
TGI [57]: > 100 µM
TGI [58]: > 100 µM
TGI [59]: > 100 µM
TGI [22]: > 100 µM
TGI [23]: > 100 µM
TGI [24]: > 100 µM
TGI [25]: > 100 µM
TGI [26]: > 100 µM
TGI [27]: > 100 µM
TGI [60]: > 100 µM
TGI [28]: > 100 µM
TGI [30]: > 100 µM
TGI [31]: > 100 µM
TGI [61]: > 100 µM
TGI [33]: > 100 µM
TGI [34]: > 100 µM
TGI [62]: > 100 µM
TGI [36]: > 100 µM
TGI [63]: > 100 µM
TGI [64]: > 100 µM
TGI [37]: > 100 µM
TGI [39]: > 100 µM
TGI [40]: > 100 µM
TGI [65]: > 100 µM
TGI [41]: > 100 µM
TGI [66]: > 100 µM
TGI [42]: > 100 µM
TGI [43]: > 100 µM
TGI [67]: > 100 µM
TGI [44]: > 100 µM
TGI [45]: > 100 µM
TGI [46]: > 100 µM
TGI [47]: > 100 µM
TGI [48]: > 100 µM
TGI [49]: > 100 µM
TGI [50]: > 100 µM
TGI [51]: > 100 µM
